In patent US5061794A, “Cephalosporin derivatives, and antibacterial agents” (priority 1986, dated 1991):
In brackets after ≈: the same amount, converted by molar mass. Read-outs that look alike come from different tables or passages of the source.

Tests used:
Ps. cepacia 23 = experiment: in vitro antibacterial activity, agar plate dilution method (MIC); assay type: cell-based, Pseudomonas cepacia; settings: Burkholderia cepacia, 16 h; Ps. cepacia 23; 10^6 CFU/ml; read-out: Minimum Inhibitory Concentration (MIC)
Protocol: (§1) The in vitro antibacterial activities of the compounds of the present invention against various microorganisms, were measured by the following agar plate dilution method. One platinum loopfull of each test microorganism incubated overnight in Mueller Hinton broth, was inoculated to Mueller Hinton agar (inoculum size: 10^6 CFU/ml). Such culture media containing various antibiotics in various concentrations were prepared. After incubation at 37° C. for 16 hours, the minimum inhibitory concentrations (MIC: μg/ml) were measured.

K. oxytoca GN10650 = experiment: as above; assay type: cell-based; settings: Klebsiella oxytoca, 10^6 CFU/ml
Protocol: as §1

E. coli NIHJ JC2 = experiment: as above; assay type: cell-based; settings: Escherichia coli, NIHJJC2, 16 h, read-out: Minimum Inhibitory Concentration (MIC), E. coli NIHJ JC2, 10^6 CFU/ml, 37° C.
Protocol: as §1

S. aureus 209P NIHJ-JC1 = experiment: as above; assay type: cell-based; settings: Staphylococcus aureus, 16 h
Protocol: as §1

P. vulgaris HX-19 = experiment: as above; assay type: cell-based; settings: Proteus vulgaris, HX19, 16 h, P. vulgaris HX-19; 10^6 CFU/ml; read-out: Minimum Inhibitory Concentration (MIC)
Protocol: as §1

E. cloacae 963 = experiment: as above; assay type: cell-based; settings: 10^6 CFU/ml
Protocol: as §1

K. pneumoniae PCI-602 = experiment: as above; assay type: cell-based; settings: Klebsiella pneumoniae, PCI602, 16 h, 10^6 CFU/ml
Protocol: as §1

E. coli GN5482 = experiment: as above; assay type: cell-based; settings: Escherichia coli, GN5482, 16 h
Protocol: as §1

S. marcescens IAM 1184 = experiment: as above; assay type: cell-based; settings: Serratia marcescens, IAM1184, 16 h, S. marcescens IAM 1184; 10^6 CFU/ml; read-out: Minimum Inhibitory Concentration (MIC)
Protocol: as §1

E. cloacae Nek 39 = experiment: as above; assay type: cell-based; settings: Enterobacter cloacae, NEK39, 16 h, read-out: Minimum Inhibitory Concentration (MIC), *E. cloacae Nek 39, lactamase-producing strain; 10^6 CFU/ml
Protocol: as §1

K. pneumoniae No. 42 = experiment: as above; assay type: cell-based; settings: Klebsiella pneumoniae, NO.42, 16 h, read-out: Minimum Inhibitory Concentration (MIC), *K. pneumoniae No. 42, lactamase-producing strain; 10^6 CFU/ml
Protocol: as §1

S. marcescens No. 16-2 = experiment: as above; assay type: cell-based; settings: Serratia marcescens, NO.162, 16 h
Protocol: as §1

P. vulgaris No. 33 = experiment: as above; assay type: cell-based; settings: Proteus vulgaris, NO.33, 16 h, read-out: Minimum Inhibitory Concentration (MIC), *P. vulgaris No. 33, lactamase-producing strain; 10^6 CFU/ml
Protocol: as §1

A. calcoaceticus No. 4 = experiment: as above; assay type: cell-based, Acinetobacter calcoaceticus; settings: Acinetobacter calcoaceticus, NO.4, 16 h, 10^6 CFU/ml
Protocol: as §1

Ps. aeruginosa AKR17 = experiment: as above; assay type: cell-based, Pseudomonas aeruginosa; settings: Pseudomonas aeruginosa, 10^6 CFU/ml
Protocol: as §1

Ps. aeruginosa IF03445 = experiment: as above; assay type: cell-based, Pseudomonas aeruginosa; settings: Pseudomonas aeruginosa, IF03445, 16 h, read-out: Minimum Inhibitory Concentration (MIC), Ps. aeruginosa IF03445; 10^6 CFU/ml
Protocol: as §1

Ps. aeruginosa AK 109 = experiment: as above; assay type: cell-based, Pseudomonas aeruginosa; settings: Pseudomonas aeruginosa, AK109, 16 h
Protocol: as §1

E. coli CSH2 (RK1) = experiment: microbe, parasite or virus in culture; assay type: cell-based; settings: Escherichia coli, 16 h, read-out: Minimum Inhibitory Concentration (MIC), *E. coli CSH2 (RK1), lactamase-producing strain; 10^6 CFU/ml
Protocol: as §1

E. coli CSH(RE45) = experiment: microbe, parasite or virus in culture; assay type: cell-based; settings: Escherichia coli, 16 h, read-out: Minimum Inhibitory Concentration (MIC), *E. coli CSH(RE45), lactamase-producing strain; 10^6 CFU/ml
Protocol: as §1

[1] = GN10650, 16 h, read-out: Minimum Inhibitory Concentration (MIC), *K. oxytoca GN10650, lactamase-producing strain
[2] = read-out: Minimum Inhibitory Concentration (MIC)
[3] = Enterobacter cloacae, 16 h, E. cloacae 963, read-out: Minimum Inhibitory Concentration (MIC)
[4] = read-out: Minimum Inhibitory Concentration (MIC), K. pneumoniae PCI-602
[5] = read-out: Minimum Inhibitory Concentration (MIC), *E. coli GN5482, lactamase-producing strain, 10^6 CFU/ml
[6] = read-out: Minimum Inhibitory Concentration (MIC), *S. marcescens No. 16-2, lactamase-producing strain, 10^6 CFU/ml
[7] = A. calcoaceticus No. 4, read-out: Minimum Inhibitory Concentration (MIC)
[8] = 16 h, Ps. aeruginosa AKR17, read-out: Minimum Inhibitory Concentration (MIC)
[9] = 16 h, *K. oxytoca GN10650, lactamase-producing strain, read-out: Minimum Inhibitory Concentration (MIC)
[10] = read-out: Minimum Inhibitory Concentration (MIC), A. calcoaceticus No. 4
[11] = read-out: Minimum Inhibitory Concentration (MIC), Ps. aeruginosa AK 109, 10^6 CFU/ml

Row | SMILES | MIC (Ps. cepacia 23) | MIC (K. oxytoca GN10650; [1]) | MIC (E. coli NIHJ JC2) | MIC (S. aureus 209P NIHJ-JC1; [2]) | MIC (P. vulgaris HX-19) | MIC (E. cloacae 963; [3]) | MIC (K. pneumoniae PCI-602; [4]) | MIC (E. coli GN5482; [5]) | MIC (S. marcescens IAM 1184) | MIC (E. cloacae Nek 39) | MIC (K. pneumoniae No. 42) | MIC (S. marcescens No. 16-2; [6]) | MIC (P. vulgaris No. 33) | MIC (A. calcoaceticus No. 4; [7]) | MIC (Ps. aeruginosa AKR17; [8]) | MIC (Ps. aeruginosa IF03445) | MIC (E. coli CSH2 (RK1)) | MIC (E. coli CSH(RE45)) | MIC (K. oxytoca GN10650; [9]) | MIC (Ps. aeruginosa AK 109; [11]) | other results
1 | Nc1nc(C(=NOC2CCCC2)C(=O)NC2C(=O)N3C(C(=O)O)=C(CSc4nc(C(=O)O)c(-c5ccc(O)c(O)c5)s4)CSC23)cs1 (stereo not shown) [Ex. 54, disodium 78-[2-(2-aminothiazol-4-yl)-2-cyclopentyloxyiminoacetamido]-3-[4-carboxylate-5-(3,4-dihydroxyphenyl)thiazol-2-yl]thiomethyl-3-cephem-4-carboxylate] | < 6 ng/mL | 1.56 µg/mL | 1.56 µg/mL | 3.12 µg/mL | < 6 ng/mL | 0.1 µg/mL | < 6 ng/mL | 1.56 µg/mL | 0.05 µg/mL | 0.2 µg/mL | 0.1 µg/mL | 1.56 µg/mL | 0.025 µg/mL | 0.2 µg/mL | > 100 µg/mL | 1.56 µg/mL | 0.1 µg/mL | 3.12 µg/mL | – | – | MIC (Ps. aeruginosa AK 109; [2]): 12.5 µg/mL
2 | C=CCON=C(C(=O)NC1C(=O)N2C(C(=O)O)=C(CSc3nc(C(=O)O)c(-c4ccc(O)c(O)c4)s3)CSC12)c1csc(N)n1 (stereo not shown) [Ex. 55, disodium 78-[2-allyloxyimino-2-(2-aminothiazol-4-yl)acetamido]-3-[4-carboxylate-5-(3,4-dihydroxyphenyl)thiazol-2-yl]thiomethyl-3-cephem-4-carboxylate] | 25 ng/mL | – | 0.78 µg/mL | – | < 6 ng/mL | 0.1 µg/mL | < 6 ng/mL | – | 0.1 µg/mL | 0.39 µg/mL | 0.1 µg/mL | – | 0.025 µg/mL | – | > 100 µg/mL | 3.12 µg/mL | 0.0125 µg/mL | 0.1 µg/mL | 50 µg/mL | 6.25 µg/mL | MIC (S. aureus 209P NIHJ-JC1; read-out: Minimum Inhibitory Concentration (MIC), S. aureus 209P NIHJ-JC1, 10^6 CFU/ml, 37° C., 16 hours): 6.25 µg/mL; MIC (E. coli GN5482; [2]): 3.12 µg/mL; MIC (S. marcescens No. 16-2; [2]): 3.12 µg/mL; MIC (A. calcoaceticus No. 4; [10]): 0.1 µg/mL
3 | Nc1nc(C(=NOCc2ccccc2)C(=O)NC2C(=O)N3C(C(=O)O)=C(CSc4nc(C(=O)O)c(-c5ccc(O)c(O)c5)s4)CSC23)cs1 (stereo not shown) [Ex. 57] | < 6 ng/mL | – | 0.78 µg/mL (≈ 1.05 µM) | 3.12 µg/mL (≈ 4.21 µM) | < 6 ng/mL | – | < 6 ng/mL | – | 0.1 µg/mL (≈ 0.135 µM) | 0.39 µg/mL (≈ 0.526 µM) | 0.1 µg/mL (≈ 0.135 µM) | 6.25 µg/mL (≈ 8.44 µM) | 0.025 µg/mL (≈ 0.0337 µM) | – | > 100 µg/mL | 3.12 µg/mL (≈ 4.21 µM) | 0.0125 µg/mL (≈ 0.0169 µM) | 0.1 µg/mL (≈ 0.135 µM) | 25 µg/mL (≈ 33.7 µM) | 6.25 µg/mL (≈ 8.44 µM) | MIC (E. cloacae 963; Enterobacter cloacae, 963, 16 h, read-out: Minimum Inhibitory Concentration (MIC), E. cloacae 963): 0.05 µg/mL (≈ 0.0675 µM); MIC (E. coli GN5482; [2]): 3.12 µg/mL (≈ 4.21 µM); MIC (A. calcoaceticus No. 4; [10]): 0.39 µg/mL (≈ 0.526 µM)
4 | CC(=O)Oc1ccc(-c2nc(SCC3=C(C(=O)O)N4C(=O)C(NC(=O)C(=NOC(C)(C)C(=O)O)c5csc(N)n5)C4SC3)sc2CC(=O)O)cc1OC(C)=O (stereo not drawn) [Example 59 (II), trisodium 7β-[2-(2-aminothiazol-4-yl)-2-(1-carboxylate-1-methylethoxyimino)acetamido]-3-[4-(3,4-diacetoxyphenyl)-5-carboxylatemethylthiazol-2-yl]-thiomethyl-3-cephem-4-carboxylate] | < 6 ng/mL | 0.2 µg/mL | 3.12 µg/mL | – | 25 ng/mL | 0.2 µg/mL | – | 1.56 µg/mL | 0.2 µg/mL | 0.2 µg/mL | 0.2 µg/mL | 0.78 µg/mL | 0.05 µg/mL | 0.2 µg/mL | – | 1.56 µg/mL | 0.025 µg/mL | 0.05 µg/mL | – | 1.56 µg/mL | MIC (S. aureus 209P NIHJ-JC1; S. aureus 209P NIHJ-JC1, 10^6 CFU/ml, 37° C., 16 hours, read-out: Minimum Inhibitory Concentration (MIC)): 50 µg/mL; MIC (K. pneumoniae PCI-602; K. pneumoniae PCI-602, read-out: Minimum Inhibitory Concentration (MIC)): 25 ng/mL; MIC (Ps. aeruginosa AKR17; AKR17, 16 h, read-out: Minimum Inhibitory Concentration (MIC), Ps. aeruginosa AKR17): 1.56 µg/mL
